Key:
hair loss [1] = details: after at least one-year daily uptake; 39% hair growth in control group; cited from earlier work
Mice (males, C3H type) = experiment: Hair growth model in mice in the resting phase of the hair cycle (weight of hair after 18 days of topical application); type: in vivo
Excerpt: Data was objectively assessed by the experiments given hereafter in an already established hair growth model in mice [Inaoka Y, et al. 1994, 42:530-3.], employing treatment versus controls. As a positive control, minoxidil 5% was used. […] The present invention thus fulfills the need for a natural combination of plant extracts and provides the advantages of unanimous use and excellent efficacy. In mice, the hair growth and effluvium are a continuous cyclic process. […] Therefore, any hair growth during this period is non-physiologic and induced by external agents. […] Any research related to this model should employ minoxidil as the “golden standard” and as an essential positive control. Mice (males, C3H type), which were in the resting phase in their hair cycle, i.e. at 7 weeks of age, were employed in these experiments. The skin of the back of the mice was subjected to a complete hair cut by an electric razor, with areas of approximately 2.5×4 cm. Different solutions, as will be further described, (100 μL/day) were applied with a syringe 6 times a week for 18 days, and the skin was further massaged. At the end of the experiment, the animals were sacrificed and the skin of the back was excised. The excised skin was fixed on frame consisting of a metal disc with a radius of 0.9 cm. Hairs were cut by a scalpel, collected and weighted. […] Data was calculated by SigmaStat version 2.0, Jandel.

hair loss [2] = details: at the more effective higher concentrations; cited from earlier work

| SMILES | success (hair growth) (hair loss [1]) | Weight Of Hair (Mice (males, C3H type); C3H male mice, 7 weeks old, 100 μL/day topically 6 times a week for 18 days, hair from excised back skin, disc of radius 0.9 cm, control (placebo) 2.52 mg) | increase of hair weight as compared to control mice (Mice (males, C3H type); C3H mice, topical, 18 days, versus placebo-treated control) | side effects (hair loss [2]) |
| --- | --- | --- | --- | --- |
| CC(C)(C)NC(=O)[C@H]1CC[C@H]2[C@@H]3CC[C@H]4NC(=O)C=C[C@]4(C)[C@H]3CC[C@]12C [Finasteride] | 60% | – | – | – |
| Nc1cc(N2CCCCC2)nc(N)[n+]1[O-] [Minoxidil 5.0%, minoxidil] | – | 4.07 mg | about 65% | may cause hypotension or hypertrichosis |
